Consider five molecules from patent US6566087B1, “Phosphodiesterase 8A” (ICOS Corporation, priority 1997, dated 2003).

Structures are written as SMILES. Like-named read-outs stand apart in the source and are kept apart here.

What all share (assay type): biochemical
Experiment [1] concerns the target T1, PDE8A (Homo sapiens, UniProt Q9Y233).
T1 construct: made in house; host or cells: yeast strain BJ2-54 lacking endogenous PDE activity; plasmid W48-2ADH2 (ATCC 98552); crude yeast extract
The experiment is described as follows: Inhibition of recombinant PDE8A activity (32P-phosphate release from 32P-cAMP). The settings on record: for Fold Difference: IC50 for PDE8 versus IC50 for target family; for IC50: read-out: IC50 for PDE8. The procedure:
(§1) Frozen cell pellets (0.06 ml) were thawed and suspended in 0.2 ml lysis buffer containing 100 mM MOPS, pH 8.0, 200 mM NaCl, 2 μM […], 2 mM dithiothreitol, and 10 μg/ml each protease inhibitors pepstatin, leupeptin, and aprotinin. Approximately 0.2 ml of 0.5 mm glass beads were added to the cells which were then lysed with four 30-second cycles of vortexing. The lysate was aspirated and the beads were washed twice with 0.3 ml lysis buffer. The lysate was combined with the washes to generate the yeast extract. In some experiments the lysate was fractionated by centrifugation at 105,000×g for thirty minutes.
PDE activity was assayed by detection of ^32P-phosphate released from ^32P-cAMP or ^32P-cGMP as described previously [Loughney et al., J. Biol. Chem. 271:796-806 (1996)]. The yeast extract was diluted in 0.5×lysis buffer also containing 0.5 mg/ml bovine serum albumin. Twenty μl of the yeast extract, or diluted yeast extract, was assayed in a 100 μl reaction volume which included an additional 50 mM Tris-HCl (pH 8.0), 5 mM MgCl2 1 μM Zn SO2, and 0.1 mg/ml bovine serum albumin. Protein concentration was assayed by the method of Bradford.

In a further experiment the test system is PDE3. The experiment is described as follows: IC50 of isozyme-selective inhibitor for its target family PDE3. Particulars: Target PDE Family PDE3.
The next experiment addresses PDE5 (Homo sapiens, UniProt O76074). In words: IC50 of isozyme-selective inhibitor for its target family PDE5. Particulars: Target PDE Family PDE5.
The next experiment concerns the target PDE2 (Homo sapiens, UniProt O00408). In words: IC50 of isozyme-selective inhibitor for its target family PDE2. The settings on record: Target PDE Family PDE2.
Experiment [2] deals with known human PDEs (Non-selective). The experiment is described as follows: IC50 of non-selective inhibitor for known PDEs. The settings on record: read-out: IC50 for Target Family.
Experiment [3] concerns the target T1, PDE8A. In words: Kinetic analysis of PDE8A hydrolysis of cyclic nucleotide substrates in yeast extract. The settings on record: estimated, substrate of PDE8A, yeast lysate. The protocol:
as §1
The yeast extract was diluted in 0.5×lysis buffer also containing 0.5 mg/ml bovine serum albumin. Twenty μl of the yeast extract, or diluted yeast extract, was assayed in a 100 μl reaction volume which included an additional 50 mM Tris-HCl (pH 8.0), 5 mM MgCl2 1 μM Zn SO2, and 0.1 mg/ml bovine serum albumin. Protein concentration was assayed by the method of Bradford.

[4] abbreviates: cAMP concentration of 60 nM, low Km form only, yeast extract.

T1 sequence (Q9Y233 290-1055 limits assumed): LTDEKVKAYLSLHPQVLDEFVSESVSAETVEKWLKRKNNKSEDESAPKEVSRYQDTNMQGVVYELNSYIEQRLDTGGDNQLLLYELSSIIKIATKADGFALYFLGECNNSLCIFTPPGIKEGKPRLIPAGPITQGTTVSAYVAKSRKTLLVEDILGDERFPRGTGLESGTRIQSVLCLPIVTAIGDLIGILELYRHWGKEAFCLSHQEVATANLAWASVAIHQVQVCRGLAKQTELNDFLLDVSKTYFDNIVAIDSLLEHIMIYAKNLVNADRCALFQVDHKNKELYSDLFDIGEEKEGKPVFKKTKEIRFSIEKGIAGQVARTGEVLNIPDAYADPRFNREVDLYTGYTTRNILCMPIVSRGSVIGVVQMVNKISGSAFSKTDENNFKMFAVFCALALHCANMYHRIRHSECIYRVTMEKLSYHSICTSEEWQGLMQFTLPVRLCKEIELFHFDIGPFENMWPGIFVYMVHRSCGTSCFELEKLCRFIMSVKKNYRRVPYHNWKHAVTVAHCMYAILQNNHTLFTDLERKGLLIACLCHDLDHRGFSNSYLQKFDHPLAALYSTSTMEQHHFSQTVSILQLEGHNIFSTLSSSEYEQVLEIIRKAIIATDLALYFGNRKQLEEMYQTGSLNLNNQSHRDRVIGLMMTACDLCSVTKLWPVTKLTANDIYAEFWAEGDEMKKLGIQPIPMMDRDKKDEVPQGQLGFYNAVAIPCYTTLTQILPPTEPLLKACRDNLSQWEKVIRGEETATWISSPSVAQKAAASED
Chain of PDE2 (O00408 whole entry): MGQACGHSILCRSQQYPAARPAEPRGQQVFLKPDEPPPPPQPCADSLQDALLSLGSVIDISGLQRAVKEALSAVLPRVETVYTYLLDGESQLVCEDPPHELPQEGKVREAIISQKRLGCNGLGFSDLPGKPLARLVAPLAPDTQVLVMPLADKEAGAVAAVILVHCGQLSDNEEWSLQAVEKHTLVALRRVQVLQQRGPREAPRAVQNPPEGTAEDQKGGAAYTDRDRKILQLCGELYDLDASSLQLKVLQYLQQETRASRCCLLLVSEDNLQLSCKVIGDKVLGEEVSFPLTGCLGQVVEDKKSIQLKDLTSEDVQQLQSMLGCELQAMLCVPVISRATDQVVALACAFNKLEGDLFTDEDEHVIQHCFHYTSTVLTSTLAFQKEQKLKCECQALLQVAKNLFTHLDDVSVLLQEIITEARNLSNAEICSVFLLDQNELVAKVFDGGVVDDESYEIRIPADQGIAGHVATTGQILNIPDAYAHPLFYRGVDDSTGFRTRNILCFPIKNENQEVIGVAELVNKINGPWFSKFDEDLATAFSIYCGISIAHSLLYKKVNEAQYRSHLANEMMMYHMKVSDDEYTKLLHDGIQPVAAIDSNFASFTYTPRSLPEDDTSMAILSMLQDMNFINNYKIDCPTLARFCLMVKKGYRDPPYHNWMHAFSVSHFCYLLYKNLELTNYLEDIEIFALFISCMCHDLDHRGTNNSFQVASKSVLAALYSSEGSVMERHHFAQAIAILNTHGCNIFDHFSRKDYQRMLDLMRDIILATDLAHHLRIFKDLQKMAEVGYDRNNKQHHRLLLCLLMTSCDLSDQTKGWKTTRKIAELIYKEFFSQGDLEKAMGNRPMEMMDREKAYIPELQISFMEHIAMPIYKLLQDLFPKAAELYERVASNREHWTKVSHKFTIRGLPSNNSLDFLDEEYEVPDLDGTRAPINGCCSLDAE

Usually IC50 stands for the concentration that gives 50% inhibition. Consider `CN(C(=O)CCCOc1ccc2[nH]c(=O)ccc2c1)C1CCCCC1` [Cilostamide], for which, at PDE8A [1], the “Fold Difference” value stood at 750. For the same molecule, the 50% inhibitory concentration (IC50) on PDE8A [1] was 12 µM; with PDE3 it was 20 nM.
With `CCCOc1ccc(NS(C)(=O)=O)cc1-c1nc2c(c(C)nn2C)c(=O)[nH]1` [DMPPO], the IC50 against PDE5 was 16 nM; at PDE8A [1] (setting [4]), 1.1 µM. For the same molecule, on PDE8A [1], the “Fold Difference” value was 66.
With `CCCCCCC(C(C)O)n1cnc2c(N)ncnc21` (stereo not drawn) [EHNA, erythro-9-(2-hydroxy-3-nonyl)adenine], the values for the IC50 on PDE2 and at PDE8A [1] were 2000 nM and 65 µM, respectively. Moreover, the “Fold Difference” value on PDE8A [1] is on record as 31.
For the molecule `CC(C)Cn1c(=O)n(C)c(=O)c2[nH]cnc21` [IBMX, isomethyl butyl xanthine], the IC50 in experiment [2] was 1 to 40 µM; at PDE8A [1] (setting [4]), 4.6 µM. Further, the “Fold Difference” value on PDE8A [1] was 0.12-4.6.
As usually defined, the Km is the concentration of substrate that gives half-maximal velocity. With `Nc1nc2c(ncn2[C@@H]2O[C@@H]3COP(=O)(O)O[C@H]3[C@H]2O)c(=O)[nH]1` [cGMP], the Km on PDE8A [3] (read-out: Km, high Km form) was 300 µM; on PDE8A [3] (read-out: Km, low Km form), 3 µM.
